How the values were obtained:
HTT mRNA = experiment: Splicing RT-qPCR assay, HTT canonical (CJ) and alternative (AJ) junction mRNA; assay type: cell-based; details: Homo sapiens, A673 or K562 cells, 24 hours; for IC50: decrease in canonical junction mRNA; for AC50: increase in alternative junction mRNA
How it was run: (§1)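 RT-qPCR read-out: CJ and AJ junction isoforms quantified from cell lysates, normalized to housekeeping GAPDH/GUSB (K562) or PPIA (A673). Cells had 24 h compound exposure, 11-point 3-fold series from 10 uM final, ≤0.25% DMSO.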

Target C = experiment: HiBiT protein abundance assay, Target C (K562 HiBiT knock-in cells); assay type: cell-based, human; details: 24 hours
How it was run: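 Protein abundance read by HiBiT lytic luminescence after 24 h compound exposure (37 °C) of knock-in K562 cells, 10000 cells/well in IMDM+1% FBS. Dosing: 10 points, 3-fold, top 10 μM final, ≤0.25% DMSO. Four-parameter logistic fit gave concentration reducing abundance to 50% of untreated control.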

MYB mRNA = experiment: Splicing RT-qPCR assay, MYB canonical (CJ) and alternative (AJ) junction mRNA; assay type: cell-based; details: Homo sapiens, A673 or K562 cells, 24 hours; for IC50: decrease in canonical junction mRNA; for AC50: increase in alternative junction mRNA
How it was run: as §1

| Compound | IC50 (HTT mRNA) [nM] | AC50 (HTT mRNA) [nM] | IC50 (Target C) [nM] | IC50 (MYB mRNA) [nM] | AC50 (MYB mRNA) [nM] |
| --- | --- | --- | --- | --- | --- |
| CN[C@@H]1CCN(c2ccc(C(=O)Nc3cc(F)c4nc(C)cn4c3)c3nccnc23)C1 (single isomer, unassigned) [Compound 193, N-{8-fluoro-2-methylimidazo[1,2-a]pyridin-6-yl}-8-[3-(methylamino)pyrrolidin-1-yl]quinoxaline-5-carboxamide] | > 10000 | > 10000 | 1000 to 10000 | 100 to 1000 | 100 to 1000 |
| CN[C@H]1CCN(c2ccc(C(=O)Nc3cc(F)c4nc(C)cn4c3)c3nccnc23)C1 (single isomer, unassigned) [Compound 194, N-{8-fluoro-2-methylimidazo[1,2-a]pyridin-6-yl}-8-[3-(methylamino)pyrrolidin-1-yl]quinoxaline-5-carboxamide] | 1000 to 10000 | 1000 to 10000 | 100 to 1000 | < 100 | 100 to 1000 |
| Cc1cn2nc(NC(=O)c3ccc(N4CCNCC4)c4ccnnc34)cc(C)c2n1 [Compound 100] | 100 to 1000 | 100 to 1000 | 100 to 1000 | 100 to 1000 | 100 to 1000 |
| Cc1cn2cc(NC(=O)c3ccc(N4CCNC5(CC5)C4)c4ccnnc34)cc(F)c2n1 [Compound 105] | 1000 to 10000 | 1000 to 10000 | 1000 to 10000 | 100 to 1000 | 100 to 1000 |
| Cc1cn2cc(NC(=O)c3ccc(N4C[C@H]5CC[C@@H](C4)N5)c4ccnnc34)cc(F)c2n1 [Compound 108] | 1000 to 10000 | 1000 to 10000 | > 10000 | 100 to 1000 | 100 to 1000 |
| Cc1cn2nc(NC(=O)c3ccc(N4CCNCC4)c4ccnnc34)cc2c(C)n1 [Compound 123] | 1000 to 10000 | 1000 to 10000 | 1000 to 10000 | 1000 to 10000 | 1000 to 10000 |
| Cc1cn2cc(NC(=O)c3ccc(N4CCNCC4)c4ccnnc34)cc(C)c2n1 [Compound 125] | 1000 to 10000 | 1000 to 10000 | 1000 to 10000 | 100 to 1000 | 100 to 1000 |
| O=C(Nc1cn[nH]c1)c1ccc(N2CCNCC2)c2ccnnc12 [Compound 126] | > 10000 | > 10000 | > 10000 | > 10000 | > 10000 |
| Cc1cn2cc(NC(=O)c3ccc(N4CCN(C)CC4)c4ccnnc34)cc(F)c2n1 [Compound 127] | 1000 to 10000 | 1000 to 10000 | 1000 to 10000 | 100 to 1000 | 1000 to 10000 |
| Cc1cn2cc(NC(=O)c3ccc(N4CCNC(C)C4)c4ccnnc34)cc(F)c2n1 (centres unmarked) [Compound 128] | 100 to 1000 | 100 to 1000 | 100 to 1000 | < 100 | < 100 |
| CCC1CN(c2ccc(C(=O)Nc3cc(F)c4nc(C)cn4c3)c3nnccc23)CCN1 (centres unmarked) [Compound 130] | 1000 to 10000 | 1000 to 10000 | 1000 to 10000 | < 100 | 100 to 1000 |
| Cc1cn2cc(NC(=O)c3ccc(N4CC5(CNC5)C4)c4ccnnc34)cc(F)c2n1 [Compound 131] | 1000 to 10000 | 1000 to 10000 | 1000 to 10000 | 100 to 1000 | 100 to 1000 |
| Cc1cn2cc(NC(=O)c3ccc(N4CCC(N5CCCC5)C4)c4ccnnc34)cc(F)c2n1 (centres unmarked) [Compound 133] | 1000 to 10000 | 1000 to 10000 | 1000 to 10000 | 1000 to 10000 | 100 to 1000 |
| Cc1cn2cc(NC(=O)c3ccc(N4CCC(N(C)C)C4)c4ccnnc34)cc(F)c2n1 (centres unmarked) [Compound 134] | 1000 to 10000 | 1000 to 10000 | 1000 to 10000 | 100 to 1000 | 100 to 1000 |
| Cc1cn2cc(NC(=O)c3ccc(N4CCC(N(C)C)CC4)c4ccnnc34)cc(F)c2n1 [Compound 137] | 100 to 1000 | 100 to 1000 | 100 to 1000 | < 100 | < 100 |
| Cc1cn2cc(NC(=O)c3ccc(N4CCC(NC(C)(C)C)CC4)c4ccnnc34)cc(F)c2n1 [Compound 138] | 1000 to 10000 | 1000 to 10000 | 1000 to 10000 | 100 to 1000 | 100 to 1000 |
| Cc1cn2cc(NC(=O)c3ccc(C4CCN(C)CC4)c4ccnnc34)cc(F)c2n1 [Compound 140] | 1000 to 10000 | 1000 to 10000 | > 10000 | 100 to 1000 | 100 to 1000 |

| Compound | IC50 (HTT mRNA) [nM] | AC50 (HTT mRNA) [nM] | IC50 (Target C) [nM] | IC50 (MYB mRNA) [nM] | AC50 (MYB mRNA) [nM] |
| --- | --- | --- | --- | --- | --- |
| CCN1CCC(c2ccc(C(=O)Nc3cc(F)c4nc(C)cn4c3)c3nnccc23)CC1 [Compound 141] | 1000 to 10000 | 1000 to 10000 | 1000 to 10000 | 100 to 1000 | 100 to 1000 |
| Cc1cn2cc(NC(=O)c3ccc(N4CCN[C@H](C)C4)c4ccnnc34)cc(F)c2n1 [Compound 146] | 100 to 1000 | 100 to 1000 | 1000 to 10000 | < 100 | < 100 |
| Cc1cn2cc(NC(=O)c3ccc(N4CCN(C)[C@H](C)C4)c4ccnnc34)cc(F)c2n1 [Compound 149] | 1000 to 10000 | 1000 to 10000 | 1000 to 10000 | < 100 | 100 to 1000 |
| Cc1cn2cc(NC(=O)c3ccc(N4CCN(C)[C@@H](C)C4)c4ccnnc34)cc(F)c2n1 [Compound 150] | 1000 to 10000 | 1000 to 10000 | 1000 to 10000 | 100 to 1000 | 100 to 1000 |
| CC[C@@H]1CN(c2ccc(C(=O)Nc3cc(F)c4nc(C)cn4c3)c3nnccc23)CCN1 [Compound 151] | 1000 to 10000 | 1000 to 10000 | 1000 to 10000 | < 100 | 100 to 1000 |
| CC[C@H]1CN(c2ccc(C(=O)Nc3cc(F)c4nc(C)cn4c3)c3nnccc23)CCN1 [Compound 152] | 1000 to 10000 | 1000 to 10000 | > 10000 | 100 to 1000 | 100 to 1000 |
| Cc1cn2cc(NC(=O)c3ccc(N4CCN5CCC[C@@H]5C4)c4ccnnc34)cc(F)c2n1 [Compound 153] | 100 to 1000 | 100 to 1000 | 1000 to 10000 | < 100 | < 100 |
| Cc1cn2cc(NC(=O)c3ccc(N4CCN5CCC[C@H]5C4)c4ccnnc34)cc(F)c2n1 [Compound 154] | 1000 to 10000 | 1000 to 10000 | 1000 to 10000 | 100 to 1000 | 100 to 1000 |
| Cc1cn2cc(NC(=O)c3ccc(N4C[C@H]5C[C@@H]4C5N(C)C)c4ccnnc34)cc(F)c2n1 (some centres unmarked) [Compound 155] | > 10000 | > 10000 | > 10000 | 1000 to 10000 | 1000 to 10000 |
| Cc1cn2cc(NC(=O)c3ccc(N(C)[C@@H]4C[C@H]5CC[C@@H](C4)N5)c4ccnnc34)cc(F)c2n1 [Compound 156] | > 10000 | > 10000 | > 10000 | 1000 to 10000 | 1000 to 10000 |
| Cc1cc2c(N3CCNCC3)ccc(C(=O)Nc3cc(F)c4nc(C)cn4c3)c2nn1 [Compound 159] | 100 to 1000 | 100 to 1000 | 1000 to 10000 | < 100 | < 100 |
| Cc1cn2cc(NC(=O)c3ccc(N4C[C@@H](C)N[C@@H](C)C4)c4ccnnc34)cc(F)c2n1 [Compound 161, 5-(3,5-dimethylpiperazin-1-yl)-N-{8-fluoro-2-methylimidazo[1,2-a]pyridin-6-yl}cinnoline-8-carboxamide 2,2,2-trifluoroacetate] | 1000 to 10000 | 1000 to 10000 | 1000 to 10000 | < 100 | < 100 |
| Cc1ccc2c(N3CCNCC3)ccc(C(=O)Nc3cc(F)c4nc(C)cn4c3)c2n1 [Compound 162, N-{8-fluoro-2-methylimidazo[1,2-a]pyridin-6-yl}-2-methyl-5-(piperazin-1-yl)quinoline-8-carboxam-ide, trifluoroacetic acid] | 1000 to 10000 | 1000 to 10000 | 1000 to 10000 | < 100 | < 100 |
| CC(=O)c1cc(NC(=O)c2ccc(N3CCNCC3)c3ccnnc23)cn2cc(C)nc12 [Compound 163, N-{8-acetyl-2-methylimidazo[1,2-a]pyridin-6-yl}-5-(piperazin-1-yl)cinnoline-8-carboxamide] | > 10000 | > 10000 | > 10000 | 1000 to 10000 | 1000 to 10000 |
| Cc1cn2cc(NC(=O)c3ccc(N4CCNCC4)c4ccnnc34)nc(C)c2n1 [Compound 164, N-{2,8-dimethylimidazo[1,2-a]pyrazin-6-yl}-5-(piperazin-1-yl)cinnoline-8-carboxamide 2,2,2-trifluoroacetate] | > 10000 | > 10000 | > 10000 | 100 to 1000 | 100 to 1000 |
| Cc1cn2cc(NC(=O)c3ccc(N4CCNCC4)c4cccnc34)cc(F)c2n1 [Compound 165, N-{8-fluoro-2-methylimidazo[1,2-a]pyridin-6-yl}-5-(piperazin-1-yl)quinoline-8-carboxamide] | 1000 to 10000 | 100 to 1000 | 1000 to 10000 | < 100 | < 100 |
| Cc1cn2cc(NC(=O)c3ccc(N4CCNCC4)c4nnccc34)cc(F)c2n1 [Compound 166, N-(8-fluoro-2-methylimidazo[1,2-a]pyridin-6-yl)-8-(piperazin-1-yl)cinnoline-5-carboxamide 2,2,2-trifluoroacetate] | > 10000 | > 10000 | > 10000 | > 10000 | > 10000 |

Source: US20240409536A1, “COMPOUNDS AND METHODS FOR MODULATING SPLICING” (REMIX THERAPEUTICS INC., priority 2021, published 2024)
